Assay results reported in ChEMBL document CHEMBL5576077, “A small-molecule degron with a phenylpropionic acid scaffold” (Bioorg Med Chem, 2024).
Each block holds one molecule with its values, some of them ahead of it. The source made the active and inactive calls. No cut-off for these calls is given here.

Experiments:
[1] = target: T1, S-phase kinase-associated protein 2/Bifunctional ligase/repressor BirA (Homo sapiens) (UniProt P06709+Q13309); assay: PROTAC activity at Skp2 in HeLa cells/N-terminal HaloTag7-fused TurboID (unknown origin) stably expressed in HeLa cells assessed as protein degradation at 30 uM incubated for 3 to 8 hrs in presence of MG132 by Western blot analysis; assay type: cell-based; settings: time 3-8 hrs
[2] = target: T1, S-phase kinase-associated protein 2/Bifunctional ligase/repressor BirA (Homo sapiens); assay: PROTAC activity at Skp2 in HeLa cells/N-terminal HaloTag7-fused TurboID (unknown origin) stably expressed in HeLa cells assessed as protein degradation at 30 uM incubated for 3 to 8 hrs in presence of BafA by Western blot analysis; assay type: cell-based; settings: time 3-8 hrs
[3] = target: T1, S-phase kinase-associated protein 2/Bifunctional ligase/repressor BirA (Homo sapiens); assay: PROTAC activity at Skp2 in HeLa cells/N-terminal HaloTag7-fused TurboID (unknown origin) stably expressed in HeLa cells assessed as protein degradation at 30 uM incubated for 8 hrs in presence of MLN4924 by Western blot analysis; assay type: cell-based
[4] = target: T1, S-phase kinase-associated protein 2/Bifunctional ligase/repressor BirA (Homo sapiens); assay: PROTAC activity at Skp2 in HeLa cells/N-terminal HaloTag7-fused TurboID (unknown origin) stably expressed in HeLa cells assessed as protein degradation at 30 uM incubated for 3 to 8 hrs in presence of Epoxomicin by Western blot analysis; assay type: cell-based; settings: time 3-8 hrs
[5] = target: T2, S-phase kinase-associated protein 2/Haloalkane dehalogenase (Homo sapiens) (UniProt Q13309+P0A3G3); assay: PROTAC activity at Skp2 in HEK293 cells/HaloTag7 fusion protein (unknown origin) stably expressed in HEK293 cells assessed as protein degradation by measuring test to control ratio at 3 uM incubated for 24 hrs by Western blot analysis; assay type: cell-based
[6] = target: T1, S-phase kinase-associated protein 2/Bifunctional ligase/repressor BirA (Homo sapiens); assay: PROTAC activity at Skp2 in HeLa cells/N-terminal HaloTag7-fused TurboID (unknown origin) stably expressed in HeLa cells assessed as protein degradation at 30 uM incubated for 3 to 8 hrs in presence of NH4Cl by Western blot analysis; assay type: cell-based; settings: time 3-8 hrs
[7] = Thermal stabilization of GST-fused HaloTag fusion protein (unknown origin) at 100 uM by SYPRO Orange dye based TSA assay
[8] = target: T1, S-phase kinase-associated protein 2/Bifunctional ligase/repressor BirA (Homo sapiens); assay: PROTAC activity at Skp2 in HeLa cells/N-terminal HaloTag7-fused TurboID (unknown origin) stably expressed in HeLa cells assessed as protein degradation at 30 uM incubated for 3 hrs by Western blot analysis; assay type: cell-based
[9] = target: T2, S-phase kinase-associated protein 2/Haloalkane dehalogenase (Homo sapiens); assay: PROTAC activity at Skp2 in HEK293 cells/HaloTag7 fusion protein (unknown origin) stably expressed in HEK293 cells assessed as protein degradation by measuring test to control ratio at 1 uM incubated for 24 hrs by Western blot analysis; assay type: cell-based
[10] = target: T2, S-phase kinase-associated protein 2/Haloalkane dehalogenase (Homo sapiens); assay: PROTAC activity at Skp2 in HEK293 cells/HaloTag7 fusion protein (unknown origin) stably expressed in HEK293 cells assessed as protein degradation by measuring test to control ratio at 0.3 uM incubated for 24 hrs by Western blot analysis; assay type: cell-based
[11] = target: T1, S-phase kinase-associated protein 2/Bifunctional ligase/repressor BirA (Homo sapiens); assay: PROTAC activity at Skp2 in HeLa cells/N-terminal HaloTag7-fused TurboID (unknown origin) stably expressed in HeLa cells assessed as protein degradation at 30 uM incubated for 8 hrs by Western blot analysis; assay type: cell-based
[12] = target: T2, S-phase kinase-associated protein 2/Haloalkane dehalogenase (Homo sapiens); assay: PROTAC activity at Skp2 in HEK293 cells/HaloTag7-ELuc fusion protein (unknown origin) stably expressed in HEK293 cells assessed as protein degradation at 1 to 10 uM incubated for 24 hrs by Western blot analysis; assay type: cell-based; settings: dose 1-10 µM

Structure (SMILES): O=C(O)CCc1ccc(OCCOCCOCCOCCOCCCCCCCl)cc1/C=C1\SC(=S)N(Cc2cccnc2)C1=O
Activity [1]: inactive
Activity [2]: Active
Activity [3]: Active
Activity [4]: inactive
T/C [5]: 25
Activity [6]: Active
Activity [7]: Active
Activity [8]: Active

Structure (SMILES): O=C(O)CCc1ccc(OCCOCCOCCOCCOCCOCCCCCCCl)cc1/C=C1\SC(=S)N(Cc2cccnc2)C1=O
T/C [9]: 64
T/C [10]: 82
T/C [5]: 37

Structure (SMILES): O=C(O)CCc1ccc(OCCOCCOCCOCCCCCCCl)cc1/C=C1\SC(=S)N(Cc2cccnc2)C1=O
T/C [5]: 81

Structure (SMILES): OCCOCCOCCOCCOCCCCCCCl
Activity [11]: inactive

Other lines, results leading:

Activity [11]: inactive
Structure (SMILES): O=C(O)COc1ccc(O)cc1/C=C1\SC(=S)N(Cc2cccnc2)C1=O

Activity [12]: Active
Structure (SMILES): O=C(O)CCc1ccc(OCCCOCCCOCCCCCCCl)cc1/C=C1\SC(=S)N(Cc2cccnc2)C1=O

T/C [9]: 121
T/C [10]: 111
T/C [5]: 103
Structure (SMILES): O=C(O)COc1ccc(OCCOCCOCCOCCOCCOCCCCCCCl)cc1/C=C1\SC(=S)N(Cc2cccnc2)C1=O
